The experiment addresses α4β3δ GABAA receptor (Homo sapiens, UniProt P28472+P48169). Kind of experiment: whole-cell patch clamp, potentiation of GABA EC20 current. It is filed as cell-based. On the technique in general: The patch-clamp technique gives a direct electrical read-out from membranes.

For orientation: EC50 means the midpoint of the concentration-response curve.

α4β3δ GABAA receptor, sequence (P48169 36-554): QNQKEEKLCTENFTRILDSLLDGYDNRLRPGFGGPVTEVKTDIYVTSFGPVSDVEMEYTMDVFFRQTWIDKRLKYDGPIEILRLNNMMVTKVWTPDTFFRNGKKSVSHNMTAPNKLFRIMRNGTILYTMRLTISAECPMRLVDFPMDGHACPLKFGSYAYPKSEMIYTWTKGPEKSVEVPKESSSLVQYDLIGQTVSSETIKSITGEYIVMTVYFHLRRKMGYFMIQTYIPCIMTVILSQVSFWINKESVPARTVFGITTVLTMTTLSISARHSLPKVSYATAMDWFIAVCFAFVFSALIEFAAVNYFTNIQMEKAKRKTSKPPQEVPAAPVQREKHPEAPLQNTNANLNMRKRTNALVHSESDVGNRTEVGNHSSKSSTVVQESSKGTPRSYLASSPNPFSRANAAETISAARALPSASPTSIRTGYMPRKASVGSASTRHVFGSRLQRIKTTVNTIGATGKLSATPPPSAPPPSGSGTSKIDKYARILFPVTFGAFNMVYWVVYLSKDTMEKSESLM
α4β3δ GABAA receptor, sequence (P28472 26-473): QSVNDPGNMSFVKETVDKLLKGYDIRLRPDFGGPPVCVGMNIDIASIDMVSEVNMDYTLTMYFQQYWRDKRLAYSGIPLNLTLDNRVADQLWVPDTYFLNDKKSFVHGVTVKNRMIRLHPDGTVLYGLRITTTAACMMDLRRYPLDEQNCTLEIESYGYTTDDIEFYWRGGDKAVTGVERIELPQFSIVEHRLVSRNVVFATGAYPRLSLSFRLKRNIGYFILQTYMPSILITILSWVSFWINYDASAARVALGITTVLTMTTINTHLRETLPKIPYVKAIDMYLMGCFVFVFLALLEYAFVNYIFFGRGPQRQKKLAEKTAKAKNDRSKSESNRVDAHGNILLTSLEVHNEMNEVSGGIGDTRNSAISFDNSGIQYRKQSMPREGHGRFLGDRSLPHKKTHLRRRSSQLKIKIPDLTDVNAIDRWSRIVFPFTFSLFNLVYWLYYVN
α4β3δ GABAA receptor, sequence (O14764 25-452 partner): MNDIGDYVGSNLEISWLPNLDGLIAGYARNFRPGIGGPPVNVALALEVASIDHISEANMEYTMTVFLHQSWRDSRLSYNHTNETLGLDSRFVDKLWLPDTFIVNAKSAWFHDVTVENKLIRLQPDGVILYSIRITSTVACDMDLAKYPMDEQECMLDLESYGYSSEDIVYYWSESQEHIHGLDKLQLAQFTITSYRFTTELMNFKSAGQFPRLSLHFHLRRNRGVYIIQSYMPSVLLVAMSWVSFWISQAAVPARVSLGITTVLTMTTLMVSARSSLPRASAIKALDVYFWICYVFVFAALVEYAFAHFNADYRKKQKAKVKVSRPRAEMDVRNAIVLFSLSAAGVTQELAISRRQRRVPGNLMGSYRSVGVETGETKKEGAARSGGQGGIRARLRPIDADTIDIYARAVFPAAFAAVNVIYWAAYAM

As to `CC(=O)[C@H]1CC[C@H]2[C@@H]3CC[C@H]4C[C@H](O)CC[C@]4(C)[C@H]3CC[C@]12C` [ALLO], the EC50 turned out to be 0.057 µM.

The record behind these values is publication PMC5148695 (Neuropharmacology, 2016).
